Test results: ChEMBL document CHEMBL4417631, “Oral peptide inhibitors of interleukin-23 receptor and their use to treat inflammatory bowel diseases” (2017)
Where a SMILES comes first, the peptide text is derived from it. [ ]: non-standard residue; d: D form. 2Nal = N[C@@H](Cc1ccc2ccccc2c1)C(=O)O; AEF = NCCOc1ccc(C[C@H](N)C(=O)O)cc1; Pen = CC(C)(S)[C@H](N)C(=O)O; Aib = CC(C)(N)C(=O)O

Biological target: T1, Interleukin-23 receptor (Homo sapiens, UniProt Q5VWK5)
T1 sequence (Q5VWK5 whole entry): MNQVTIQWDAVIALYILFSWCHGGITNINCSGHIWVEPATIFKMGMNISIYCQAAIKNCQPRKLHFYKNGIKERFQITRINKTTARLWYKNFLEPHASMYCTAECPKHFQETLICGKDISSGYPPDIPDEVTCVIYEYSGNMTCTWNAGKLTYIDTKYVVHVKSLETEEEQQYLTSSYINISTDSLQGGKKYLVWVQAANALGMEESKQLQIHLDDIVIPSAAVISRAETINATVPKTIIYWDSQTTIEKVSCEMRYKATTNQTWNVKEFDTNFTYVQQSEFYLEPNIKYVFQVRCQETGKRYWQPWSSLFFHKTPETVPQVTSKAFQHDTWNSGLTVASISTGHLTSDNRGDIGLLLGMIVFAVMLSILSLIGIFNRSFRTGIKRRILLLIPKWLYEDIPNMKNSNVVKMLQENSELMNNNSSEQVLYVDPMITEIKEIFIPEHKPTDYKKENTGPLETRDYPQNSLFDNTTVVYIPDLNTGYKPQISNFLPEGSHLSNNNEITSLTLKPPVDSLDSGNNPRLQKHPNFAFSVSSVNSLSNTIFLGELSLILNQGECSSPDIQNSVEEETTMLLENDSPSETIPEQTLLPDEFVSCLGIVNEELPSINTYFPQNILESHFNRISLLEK
Assay: Inhibition of interleukin-23 receptor in human DB cells assessed as reduction in IL-23-stimulated STAT3 phosphorylation incubated for 30 mins by HTRF assay
Format: cell-based

Row | SMILES | IC50 [nM]
1 | CC(=O)N[C@H]1CCSC[C@@H](C(=O)N[C@H]2Cc3ccc(cc3)OCCNC(=O)C[C@@H](C(=O)NCC(N)=O)NC(=O)[C@H](CCC(N)=O)NC(=O)[C@](C)(CC(C)C)NC(=O)[C@H](Cc3ccc4ccccc4c3)NC2=O)NC(=O)[C@H](CCC(N)=O)NC(=O)[C@H](Cc2c[nH]c3ccccc23)NC(=O)[C@H]([C@@H](C)O)NC(=O)[C@H](CCC(N)=O)NC1=O | 100 to 1000
2 | CC(=O)N[C@H]1CCSC[C@@H](C(=O)N[C@@H](Cc2ccc(OCCN)cc2)C(=O)N[C@@H](Cc2c[nH]c3ccc(O)cc23)C(=O)NC(C)(C)C(=O)N[C@@H](CCC(N)=O)C(=O)N[C@@H](CC(N)=O)C(=O)NCC(N)=O)NC(=O)[C@H](CCC(N)=O)NC(=O)[C@H](Cc2c[nH]c3ccccc23)NC(=O)[C@H]([C@@H](C)O)NC(=O)[C@H](CCC(N)=O)NC1=O | 10 to 25
3 | CCCCCCCC[C@H](NC(=O)[C@H](Cc1c[nH]c2ccccc12)NC(=O)[C@H](Cc1ccc(O)cc1)NC(=O)[C@H](CS)NC(=O)[C@H](CCC(N)=O)NC(=O)[C@H](Cc1c[nH]c2ccccc12)NC(=O)[C@@H](NC(=O)[C@H](CCC(N)=O)NC(=O)[C@H](CS)NC(C)=O)[C@@H](C)O)C(=O)N[C@@H](CCC(=O)O)C(=O)N[C@@H](CC(N)=O)C(=O)NCC(N)=O | 76
4 | CC(=O)NCCCC[C@H](NC(=O)[C@@](C)(NC(=O)[C@H](Cc1ccc2ccccc2c1)NC(=O)[C@H](Cc1ccc(C(N)=O)cc1)NC(=O)[C@@H](NC(=O)[C@H](CCC(N)=O)NC(=O)[C@H](Cc1c[nH]c2ccccc12)NC(=O)[C@@H](NC(=O)[C@H](CCC(N)=O)NC(=O)[C@@H](NC(=O)[C@@H](CCCCN)NC(C)=O)C(C)(C)S)[C@@H](C)O)C(C)(C)S)C(C)C)C(=O)N[C@@H](CC(N)=O)C(=O)N[C@@H](CC(N)=O)C(N)=O | 1000 to 10000
5 | CC(=O)NCCCC[C@H](NC(=O)C(C)(C)NC(=O)[C@H](Cc1ccc2ccccc2c1)NC(=O)[C@H](Cc1ccc(OCCN)cc1)NC(=O)[C@@H](NC(=O)[C@H](CCC(N)=O)NC(=O)[C@H](Cc1c[nH]c2ccccc12)NC(=O)[C@@H](NC(=O)[C@H](CCC(N)=O)NC(=O)[C@@H](NC(=O)[C@H](Cc1ccccc1)NC(C)=O)C(C)(C)S)[C@@H](C)O)C(C)(C)S)C(=O)N[C@@H](CC(N)=O)C(=O)N[C@@H](CC(N)=O)C(N)=O | < 10
6 | COc1ccc(C[C@H](NC(=O)[C@@H](NC(=O)[C@H](CCC(N)=O)NC(=O)[C@H](Cc2c[nH]c3ccccc23)NC(=O)[C@@H](NC(=O)[C@H](CCC(N)=O)NC(=O)[C@@H](NC(C)=O)C(C)(C)S)[C@@H](C)O)C(C)(C)S)C(=O)N[C@@H](Cc2ccc3ccccc3c2)C(=O)N[C@@H](CCC(C)C)C(=O)N[C@@H](CCCCNC(C)=O)C(=O)N[C@@H](CC(N)=O)C(=O)NCCC(N)=O)cc1 | < 10
7 | CC(=O)N[C@@H](CS)C(=O)N[C@@H](CN)C(=O)N[C@H](C(=O)N[C@@H](Cc1c[nH]c2ccccc12)C(=O)N[C@@H](CCC(N)=O)C(=O)N[C@@H](CS)C(=O)N[C@@H](Cc1ccc(O)cc1)C(=O)N[C@@H](Cc1c[nH]c2ccccc12)C(=O)N[C@@H](CCCNC(=N)N)C(=O)N[C@H](C(=O)N[C@@H](Cc1ccccc1)C(=O)NCC(=O)NCCOCC(=O)N[C@H](CCCCN)C(N)=O)C(C)C)[C@@H](C)O | 100
8 | CC(=O)NCCCC[C@H](NC(=O)C(C)(C)NC(=O)[C@H](Cc1ccc2ccccc2c1)NC(=O)[C@H](Cc1ccc(OCCN)cc1)NC(=O)[C@@H](NC(=O)[C@H](CCC(N)=O)NC(=O)[C@H](Cc1c[nH]c2ccccc12)NC(=O)[C@@H](NC(=O)[C@@H](NC(=O)[C@@H](NC(C)=O)C(C)(C)S)[C@@H](C)O)[C@@H](C)O)C(C)(C)S)C(=O)N[C@@H](CC(N)=O)C(=O)N[C@@H](CCC(N)=O)C(N)=O | < 10

Further lines, results first:

Row | IC50 [nM] | SMILES
9 | < 10 | CC(=O)NCCCC[C@H](NC(=O)C(C)(C)NC(=O)[C@H](Cc1ccc2ccccc2c1)NC(=O)[C@H](Cc1ccc(OCCN)cc1)NC(=O)[C@@H](NC(=O)[C@H](CCC(N)=O)NC(=O)[C@H](Cc1c[nH]c2ccccc12)NC(=O)[C@@H](NC(=O)[C@H](CCC(N)=O)NC(=O)[C@@H](NC(=O)[C@H](CCC(=O)O)NC(C)=O)C(C)(C)S)[C@@H](C)O)C(C)(C)S)C(=O)N[C@@H](CC(N)=O)C(=O)N[C@@H](CC(N)=O)C(N)=O (Ac-E[Pen]QTWQ[Pen][AEF][2Nal][Aib]K(Ac)NN-NH2)
10 | < 10 | CC(=O)NCCCC[C@H](NC(=O)C(C)(C)NC(=O)[C@H](Cc1ccc2ccccc2c1)NC(=O)[C@H](Cc1ccc(OCCN)cc1)NC(=O)[C@@H](NC(=O)[C@H](CCC(N)=O)NC(=O)[C@H](Cc1c[nH]c2ccccc12)NC(=O)[C@@H](NC(=O)[C@H](CCC(N)=O)NC(=O)[C@@H](NC(=O)[C@H](Cc1ccc2ccccc2c1)NC(C)=O)C(C)(C)S)[C@@H](C)O)C(C)(C)S)C(=O)N[C@@H](CC(N)=O)C(=O)N[C@@H](CC(N)=O)C(N)=O
11 | < 10 | COc1ccc(C[C@H](NC(=O)[C@@H](NC(=O)[C@H](CCC(N)=O)NC(=O)[C@H](Cc2c[nH]c3ccccc23)NC(=O)[C@@H](NC(=O)[C@H](CCC(N)=O)NC(=O)[C@@H](NC(C)=O)C(C)(C)S)[C@@H](C)O)C(C)(C)S)C(=O)N[C@@H](Cc2ccc3ccccc3c2)C(=O)NC(C)(C)C(=O)N[C@@H](CCCCNC(C)=O)C(=O)N[C@@H](CC(N)=O)C(=O)N[C@@H](CCC(N)=O)C(N)=O)cc1
12 | < 10 | COc1ccc(C[C@H](NC(=O)[C@@H](NC(=O)[C@H](CCC(N)=O)NC(=O)[C@H](Cc2c[nH]c3ccccc23)NC(=O)[C@@H](NC(=O)[C@H](CCC(N)=O)NC(=O)[C@@H](NC(C)=O)C(C)(C)S)[C@@H](C)O)C(C)(C)S)C(=O)N[C@@H](Cc2ccc3ccccc3c2)C(=O)N[C@](C)(C(=O)N[C@@H](CCCCNC(C)=O)C(=O)N[C@@H](CC(N)=O)C(=O)N[C@@H](CC(N)=O)C(=O)N[C@@H](N)CCCCN)C(C)C)cc1
13 | < 10 | CC(=O)NCCCC[C@H](NC(=O)C(C)(C)NC(=O)[C@H](Cc1ccc2ccccc2c1)NC(=O)[C@H](Cc1ccc(OCCN)cc1)NC(=O)[C@@H](NC(=O)[C@H](CCC(N)=O)NC(=O)[C@H](Cc1c[nH]c2ccccc12)NC(=O)[C@@H](NC(=O)[C@H](CCC(N)=O)NC(=O)[C@@H](NC(=O)[C@H](CCCNC(=N)N)NC(C)=O)C(C)(C)S)[C@@H](C)O)C(C)(C)S)C(=O)N[C@@H](CC(N)=O)C(=O)N[C@@H](CC(N)=O)C(N)=O
14 | < 10 | COc1ccc(C[C@H](NC(=O)[C@@H](NC(=O)[C@H](CCC(N)=O)NC(=O)[C@H](Cc2c[nH]c3ccccc23)NC(=O)[C@@H](NC(=O)[C@H](CCC(N)=O)NC(=O)[C@@H](NC(C)=O)C(C)(C)S)[C@@H](C)O)C(C)(C)S)C(=O)N[C@@H](Cc2ccc3ccccc3c2)C(=O)NC(C)(C)C(=O)N[C@@H](CCCCNC(C)=O)C(=O)N[C@@H](CC(N)=O)C(=O)NCCC(N)=O)cc1
15 | < 10 | CC(=O)NCCCC[C@H](NC(=O)C(C)(C)NC(=O)[C@H](Cc1ccc2ccccc2c1)NC(=O)[C@H](Cc1ccc(OCCN)cc1)NC(=O)[C@@H](NC(=O)[C@H](CCC(N)=O)NC(=O)[C@H](Cc1c[nH]c2ccccc12)NC(=O)[C@@H](NC(=O)[C@H](CCC(N)=O)NC(=O)[C@@H](NC(C)=O)C(C)(C)S)[C@@H](C)O)C(C)(C)S)C(=O)N[C@@H](CC(N)=O)C(=O)N[C@@H](C)C(N)=O
16 | < 10 | COc1ccc(C[C@H](NC(=O)[C@@H](NC(=O)[C@H](CCC(N)=O)NC(=O)[C@H](Cc2c[nH]c3ccccc23)NC(=O)[C@@H](NC(=O)[C@H](CCC(N)=O)NC(=O)[C@@H](NC(C)=O)C(C)(C)S)[C@@H](C)O)C(C)(C)S)C(=O)N[C@@H](Cc2ccc3ccccc3c2)C(=O)NC(C)(C)C(=O)N[C@@H](CCCCNC(C)=O)C(=O)N[C@@H](CC(N)=O)C(=O)N[C@@H](C)C(N)=O)cc1
17 | < 10 | CC(=O)NCCCC[C@H](NC(=O)C(C)(C)NC(=O)[C@H](Cc1ccc2ccccc2c1)NC(=O)[C@H](Cc1ccc(OCCN)cc1)NC(=O)[C@@H](NC(=O)[C@H](CCC(N)=O)NC(=O)[C@H](Cc1c[nH]c2ccccc12)NC(=O)[C@@H](NC(=O)[C@H](CCC(N)=O)NC(=O)[C@@H](NC(=O)[C@@H](CC(=O)O)NC(C)=O)C(C)(C)S)[C@@H](C)O)C(C)(C)S)C(=O)N[C@@H](CC(N)=O)C(=O)N[C@@H](CC(N)=O)C(N)=O
18 | < 10 | CC(=O)NCCCC[C@H](NC(=O)C(C)(C)NC(=O)[C@H](Cc1ccc2ccccc2c1)NC(=O)[C@H](Cc1ccc(OCCN)cc1)NC(=O)[C@@H](NC(=O)[C@H](CCC(N)=O)NC(=O)[C@H](Cc1c[nH]c2ccccc12)NC(=O)[C@@H](NC(=O)[C@H](CCC(N)=O)NC(=O)[C@@H](NC(=O)[C@@H](NC(C)=O)[C@@H](C)O)C(C)(C)S)[C@@H](C)O)C(C)(C)S)C(=O)N[C@@H](CC(N)=O)C(=O)N[C@@H](CC(N)=O)C(N)=O (Ac-T[Pen]QTWQ[Pen][AEF][2Nal][Aib]K(Ac)NN-NH2)
19 | < 10 | CC(=O)NCCCC[C@H](NC(=O)C(C)(C)NC(=O)[C@H](Cc1ccc2ccccc2c1)NC(=O)[C@H](Cc1ccc(OCCN)cc1)NC(=O)[C@@H](NC(=O)[C@H](CCC(N)=O)NC(=O)[C@H](Cc1c[nH]c2ccccc12)NC(=O)[C@@H](NC(=O)[C@H](CCC(N)=O)NC(=O)[C@@H](NC(=O)[C@H](CC(C)C)NC(C)=O)C(C)(C)S)[C@@H](C)O)C(C)(C)S)C(=O)N[C@@H](CC(N)=O)C(=O)N[C@@H](CC(N)=O)C(N)=O (Ac-L[Pen]QTWQ[Pen][AEF][2Nal][Aib]K(Ac)NN-NH2)
